In patent US20210223266A1, “METHODOLOGIES AND METHODS FOR MEASURING HIGHER MOLECULAR WEIGHT TRANSTHYRETIN OR EQUIVALENTS AS A CLINICAL BIOMARKER” (TTR Therapeutics, priority 2019, published 2021):

Legend:
HMW TTR = settings: V30M ATTR patients; cited from earlier work
native TTR = settings: Taf Group; no Taf Group 273.8 nM, non-ATTR controls 271.5 nM; not significantly different; cited from earlier work
ATTR-CM patients = settings: cited from earlier work
[1] = Tafamidis exposure in vitreous fluid / across blood-brain barrier after oral dosing; assay type: in vivo, human; settings: long-term
Source text: Multiple publications have reported reduced serum TTR levels, as measured by nephelometry or radial immunodiffusion (commercial kits readily available), in familial amyloid polyneuropathy patients with vitreous amyloidosis. “Prealbumin. A major constituent of vitreous amyloid,” Ophthalmology. 1987 July; 94(7):792-8. […] “Transthyretin deposition in the eye in the era of effective therapy for hereditary ATTRV30M amyloidosis,” https://doi.org/10.1080/13506129.2018.1554563.

[2] = oral tafamidis (presumably 20 mg QD) long-term; cited from earlier work
TTR [3] = molecular target: TTR (Homo sapiens, UniProt P02766, V142I); assay: TTR levels in ATTR-CM patients on tafamidis 20 mg QD (Fx1B-201), immunoturbidimetric assays; assay type: in vivo; settings: V1221 mATTR-CM patients
Procedure: (§1) We believe these levels were measured using immunoturbidimetric assays performed by Genzyme Analytic Services.

TTR [4] = molecular target: TTR (Homo sapiens, UniProt P02766); assay: as above; assay type: in vivo; settings: wtATTR-CM patients
Procedure: as §1

[5] = tested on: ATTR patients with mutated TTR (V30M); settings: cited from earlier work
TTR [6] = assay: TTR levels at tafamidis 20 vs 80 mg, Phase 3 ATTR-ACT trial; assay type: in vivo, human; settings: proprietary analysis
Procedure: We believe our discovery has relevance to the recently reported Phase 3 ATTR-ACT trial that readout positive mortality reduction with pooled tafamidis (20 mg and 80 mg QD) vs placebo. […] This is in line with one of Pfizer's expectations for the Phase 3 protocol (Maurer 2018, Phase 3 Final Protocol, 31 Jul. 2013. PF-06291826 Tafamidis Meglumine. B3461028) when looking at the plot of % TTR stabilization (y-axis) and molar ratio of tafamidis in FIG. 5: TTR levels (μM). We highlighted in red the wide ranges for pharmacodynamic effects related to 80 mg relative to 20 mg (in blue shade) to point out (1) potential for both dose-strengths to nearly overlap, (2) plotted data points were from Phase 1 data in healthy volunteers using liquid formulations of tafamidis (not capsule formulation given in Phase 3 ATTR-ACT trial), and (3) 80 mg PD expectations were calculated as a 4× multiple of 20 mg PD data, which could be important given PK variations may have not been optimized and could explain differences seen in Phase 3 ATTR-ACT clinical trial which tested 20 mg and 80 mg doses of tafamidis.

TTR tetramer = molecular target: T1, TTR tetramer (Homo sapiens, UniProt P02766); settings: wtATTR-CM, off-label diflunisal; untreated 22 mg/dL (12-29); cited from earlier work
T1 construct: TTR tetramer levels were measured by immunoturbidimetric (IT) assays by Abbot Laboratories; from tissue; host or cells: blood samples of human wtATTR-CM patients (literature study, Circ Heart Fail 2018)

wtATTR-CM patients = settings: p<0.001; cited from earlier work
[7] = tested on: TTR-assisted beta-amyloid (Aβ) transport; settings: cited from earlier work

O=C(O)c1ccc2nc(-c3cc(Cl)cc(Cl)c3)oc2c1 [tafamidis]
HMW TTR levels (HMW TTR): increase HMW TTR levels | Average [native TTR] in the CSF (native TTR): 265.8 nM | lower death-rates at month-30 compared to untreated (ATTR-CM patients; ATTR-CM patients, 20 mg tafamidis, long-term follow-up): ~40% | rate at month-30 (77% vs 45% untreated) (ATTR-CM patients; ATTR-CM patients, 20 mg tafamidis): 77% | reduction in death-rate at month-30 vs placebo (ATTR-CM patients; Phase 3 ATTR-ACT, pooled 20 mg QD and 80 mg QD, mATTR and wtATTR-CM): ~30% | blood-brain barrier crossing [1]: can cross the blood-brain barrier | drug levels in the vitreous fluid [2]: detectable drug levels | increase of TTR levels from baseline (TTR [3]): 50-60% | increase of TTR levels from baseline (TTR [4]): ~17% | ocular abnormalities ([5]; 20 mg/day, liver transplant 34%, supportive therapy 26%): 22% | ocular abnormalities compared to untreated or liver transplantation ([5]; ATTR-PN, long-term treatment (>5 years), p=0.09 vs untreated, p=0.007 vs liver transplantation): lower ocular abnormalities | differences in TTR levels between the two dose-strengths (TTR [6]): ~1 mg/dL

O=C(O)c1cc(-c2ccc(F)cc2F)ccc1O [diflunisal]
TTR levels after one year (TTR tetramer): 30 mg/dL | one-year survival-rates vs untreated (wtATTR-CM patients): improved one-year survival-rates

O=C(O)c1cc(-c2ccc(F)cc2F)cc(I)c1O [iodo-diflunisal]
TTR-assisted beta-amyloid (Aβ) transport [7]: enhanced
